Test results from patent US9932381B2, “Exendin-4 derivatives as selective glucagon receptor agonists” (priority 2014, dated 2018).
pEC50: −log10 of the molar value. Where two headings read alike, the source gives them in different places. Non-standard residues stand in square brackets, D forms with d. Residues, ends and D or L forms follow the SMILES beside them. Ala(4-thiazolyl) = N[C@@H](Cc1cscn1)C(=O)O; 1Nal = N[C@@H](Cc1cccc2ccccc12)C(=O)O; Phe(2-F) = N[C@@H](Cc1ccccc1F)C(=O)O; Nle = CCCC[C@H](N)C(=O)O

Target: T1, human glucagon receptor (hGLUC R) (Homo sapiens, UniProt P47871)
T1 construct: expressed in transfected cells; host or cells: HEK-293
Assay: cAMP response (HTRF) of HEK-293 cells stably expressing human glucagon receptor
Assay type: cell-based
Description: cAMP content of cells was determined using a kit from Cisbio Corp. (cat. no. 62AM4PEC) based on HTRF (Homogenous Time Resolved Fluorescence). For preparation, cells were split into T175 culture flasks and grown overnight to near confluency in medium (DMEM/10% FBS). Medium was then removed and cells washed with PBS lacking calcium and magnesium, followed by proteinase treatment with accutase (Sigma-Aldrich cat. no. A6964). Detached cells were washed and resuspended in assay buffer (1×HBSS; 20 mM HEPES, 0.1% BSA, 2 mM IBMX) and cellular density determined. They were then diluted to 400000 cells/ml and 25 μl-aliquots dispensed into the wells of 96-well plates. For measurement, 25 μl of test compound in assay buffer was added to the wells, followed by incubation for 30 minutes at room temperature.

[1] = Table 4, read-out: EC50 hGLUC R
[2] = Table 5, Tza vs. His in position 1, read-out: EC50 hGlucagon-R

T1 sequence (P47871 26-477): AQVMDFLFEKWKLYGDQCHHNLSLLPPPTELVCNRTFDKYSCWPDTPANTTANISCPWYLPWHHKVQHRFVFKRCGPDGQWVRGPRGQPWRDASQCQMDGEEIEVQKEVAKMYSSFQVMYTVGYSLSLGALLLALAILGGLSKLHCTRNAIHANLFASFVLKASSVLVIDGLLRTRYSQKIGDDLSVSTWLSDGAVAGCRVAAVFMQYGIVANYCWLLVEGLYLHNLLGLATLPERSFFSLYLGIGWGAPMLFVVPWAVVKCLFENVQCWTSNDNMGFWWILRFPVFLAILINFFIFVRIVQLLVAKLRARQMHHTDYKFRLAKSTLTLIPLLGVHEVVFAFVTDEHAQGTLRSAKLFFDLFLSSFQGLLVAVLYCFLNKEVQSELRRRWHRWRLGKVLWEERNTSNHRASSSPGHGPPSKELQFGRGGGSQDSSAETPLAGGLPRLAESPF

Compound	pEC50 [1]	pEC50 [2]
CCCC[C@H](NC(=O)[C@H](CCC(N)=O)NC(=O)[C@H](CCCCN)NC(=O)[C@H](CO)NC(=O)[C@H](Cc1ccccc1)NC(=O)[C@H](CC(=O)O)NC(=O)[C@H](CO)NC(=O)[C@@H](NC(=O)[C@H](Cc1ccccc1)NC(=O)[C@@H](NC(=O)CNC(=O)[C@H](CCC(N)=O)NC(=O)[C@H](CO)NC(=O)[C@@H](N)Cc1cscn1)[C@@H](C)O)[C@@H](C)O)C(=O)N[C@@H](CCC(=O)O)C(=O)N[C@@H](CO)C(=O)N[C@@H](CCCNC(=N)N)C(=O)N[C@@H](CCCNC(=N)N)C(=O)N[C@@H](C)C(=O)N[C@@H](CCC(N)=O)C(=O)N[C@@H](CC(=O)O)C(=O)N[C@@H](Cc1ccccc1)C(=O)N[C@H](C(=O)N[C@@H](CCC(=O)O)C(=O)N[C@@H](Cc1c[nH]c2ccccc12)C(=O)N[C@@H](CC(C)C)C(=O)N[C@@H](CC(C)C)C(=O)N[C@@H](C)C(=O)N[C@H](C(=O)NCC(=O)N1CCC[C@H]1C(=O)N[C@@H](CCC(=O)O)C(=O)N[C@@H](CO)C(=O)NCC(=O)N[C@@H](C)C(=O)N1CCC[C@H]1C(=O)N1CCC[C@H]1C(=O)N1CCC[C@H]1C(=O)N[C@@H](CO)C(=O)O)[C@@H](C)O)[C@@H](C)CC [SEQ ID NO 13, Tza-S-Q-G-T-F-T-S-D-F-S-K-Q-Nle-ESRRAQDFIEWLLATGPESGAPPPS-OH] (H-[Ala(4-thiazolyl)]SQGTFTSDFSKQ[Nle]ESRRAQDFIEWLLATGPESGAPPPS-OH; N-terminus assumed)	11.51	–
CCCC[C@H](NC(=O)[C@H](CCC(N)=O)NC(=O)[C@H](CCCCN)NC(=O)[C@H](CO)NC(=O)[C@H](Cc1ccc(O)cc1)NC(=O)[C@H](CC(=O)O)NC(=O)[C@H](CO)NC(=O)[C@@H](NC(=O)[C@H](Cc1ccccc1)NC(=O)[C@@H](NC(=O)CNC(=O)[C@H](CCC(N)=O)NC(=O)[C@H](CO)NC(=O)[C@@H](N)Cc1cscn1)[C@@H](C)O)[C@@H](C)O)C(=O)N[C@@H](CCC(=O)O)C(=O)N[C@@H](CO)C(=O)N[C@@H](CCCNC(=N)N)C(=O)N[C@@H](CCCNC(=N)N)C(=O)N[C@@H](C)C(=O)N[C@@H](CCC(N)=O)C(=O)N[C@@H](CCC(=O)O)C(=O)N[C@@H](Cc1ccccc1)C(=O)N[C@H](C(=O)N[C@@H](CCC(=O)O)C(=O)N[C@@H](Cc1c[nH]c2ccccc12)C(=O)N[C@@H](CC(C)C)C(=O)N[C@@H](CC(C)C)C(=O)N[C@@H](C)C(=O)N[C@H](C(=O)NCC(=O)N1CCC[C@H]1C(=O)N[C@@H](CCC(=O)O)C(=O)N[C@@H](CO)C(=O)NCC(=O)N[C@@H](C)C(=O)N1CCC[C@H]1C(=O)N1CCC[C@H]1C(=O)N1CCC[C@H]1C(=O)N[C@@H](CO)C(=O)O)[C@@H](C)O)[C@@H](C)CC [SEQ ID NO 17, Tza-S-Q-G-T-F-T-S-D-Y-S-K-Q-Nle-ESRRAQEFIEWLLATGPESGAPPPS-OH]	12.00	–
CCCC[C@H](NC(=O)[C@H](CCC(N)=O)NC(=O)[C@H](CCCCN)NC(=O)[C@H](CO)NC(=O)[C@H](Cc1ccccc1F)NC(=O)[C@H](CC(=O)O)NC(=O)[C@H](CO)NC(=O)[C@@H](NC(=O)[C@H](Cc1ccccc1)NC(=O)[C@@H](NC(=O)CNC(=O)[C@H](CCC(N)=O)NC(=O)[C@H](CO)NC(=O)[C@@H](N)Cc1cscn1)[C@@H](C)O)[C@@H](C)O)C(=O)N[C@@H](CCC(=O)O)C(=O)N[C@@H](CO)C(=O)N[C@@H](CCCNC(=N)N)C(=O)N[C@@H](CCCNC(=N)N)C(=O)N[C@@H](C)C(=O)N[C@@H](CCC(N)=O)C(=O)N[C@@H](CC(=O)O)C(=O)N[C@@H](Cc1ccccc1)C(=O)N[C@H](C(=O)N[C@@H](CCC(=O)O)C(=O)N[C@@H](Cc1c[nH]c2ccccc12)C(=O)N[C@@H](CC(C)C)C(=O)N[C@@H](CC(C)C)C(=O)N[C@@H](C)C(=O)N[C@H](C(=O)NCC(=O)N1CCC[C@H]1C(=O)N[C@@H](CCC(=O)O)C(=O)N[C@@H](CO)C(=O)NCC(=O)N[C@@H](C)C(=O)N1CCC[C@H]1C(=O)N1CCC[C@H]1C(=O)N1CCC[C@H]1C(=O)N[C@@H](CO)C(=O)O)[C@@H](C)O)[C@@H](C)CC [SEQ ID NO 18, Tza-S-Q-G-T-F-T-S-D-2FPhe-S-K-Q-Nle-ESRRAQDFIEWLLATGPESGAPPPS-OH] (H-[Ala(4-thiazolyl)]SQGTFTSD[Phe(2-F)]SKQ[Nle]ESRRAQDFIEWLLATGPESGAPPPS-OH)	11.51	–
CC[C@H](C)[C@H](NC(=O)[C@H](Cc1ccccc1)NC(=O)[C@H](CC(=O)O)NC(=O)[C@H](CCC(N)=O)NC(=O)[C@H](C)NC(=O)[C@H](CCCNC(=N)N)NC(=O)[C@H](CCCNC(=N)N)NC(=O)[C@H](CO)NC(=O)[C@H](CCC(=O)O)NC(=O)[C@H](CC(C)C)NC(=O)[C@H](CCC(N)=O)NC(=O)[C@H](CCCCN)NC(=O)[C@H](CO)NC(=O)[C@H](Cc1cccc2ccccc12)NC(=O)[C@H](CC(=O)O)NC(=O)[C@H](CO)NC(=O)[C@@H](NC(=O)[C@H](Cc1ccccc1)NC(=O)[C@@H](NC(=O)CNC(=O)[C@H](CCC(N)=O)NC(=O)[C@H](CO)NC(=O)[C@@H](N)Cc1cscn1)[C@@H](C)O)[C@@H](C)O)C(=O)N[C@@H](CCC(=O)O)C(=O)N[C@@H](Cc1c[nH]c2ccccc12)C(=O)N[C@@H](CC(C)C)C(=O)N[C@@H](CC(C)C)C(=O)N[C@@H](C)C(=O)N[C@H](C(=O)NCC(=O)N1CCC[C@H]1C(=O)N[C@@H](CCC(=O)O)C(=O)N[C@@H](CO)C(=O)NCC(=O)N[C@@H](C)C(=O)N1CCC[C@H]1C(=O)N1CCC[C@H]1C(=O)N1CCC[C@H]1C(=O)N[C@@H](CO)C(=O)O)[C@@H](C)O [SEQ ID NO 22, Tza-S-Q-G-T-F-T-S-D-1Nal-SKQLESRRAQDFIEWLLATGPESGAPPPS-OH] (H-[Ala(4-thiazolyl)]SQGTFTSD[1Nal]SKQLESRRAQDFIEWLLATGPESGAPPPS-OH; N-terminus assumed)	12.00	–
CC[C@H](C)[C@H](NC(=O)[C@H](Cc1ccccc1)NC(=O)[C@H](CCC(=O)O)NC(=O)[C@H](CCC(N)=O)NC(=O)[C@H](C)NC(=O)[C@H](CCCNC(=N)N)NC(=O)[C@H](CCCNC(=N)N)NC(=O)[C@H](CO)NC(=O)[C@H](CCC(=O)O)NC(=O)[C@H](CC(C)C)NC(=O)[C@H](CCC(N)=O)NC(=O)[C@H](CCCCN)NC(=O)[C@H](CO)NC(=O)[C@H](Cc1ccc(O)cc1)NC(=O)[C@H](CC(=O)O)NC(=O)[C@H](CO)NC(=O)[C@@H](NC(=O)[C@H](Cc1ccccc1)NC(=O)[C@@H](NC(=O)CNC(=O)[C@H](CCC(N)=O)NC(=O)[C@H](CO)NC(=O)[C@@H](N)Cc1c[nH]cn1)[C@@H](C)O)[C@@H](C)O)C(=O)N[C@@H](CCC(=O)O)C(=O)N[C@@H](Cc1c[nH]c2ccccc12)C(=O)N[C@@H](CC(C)C)C(=O)N[C@@H](CC(C)C)C(=O)N[C@@H](C)C(=O)NCC(=O)NCC(=O)N1CCC[C@H]1C(=O)N[C@@H](CCC(=O)O)C(=O)N[C@@H](CO)C(=O)NCC(=O)N[C@@H](C)C(=O)N1CCC[C@H]1C(=O)N1CCC[C@H]1C(=O)N1CCC[C@H]1C(=O)N[C@@H](CO)C(=O)O [SEQ ID NO 28, HSQGTFTSDYSKQLESRRAQEFIEWLLAGGPESGAPPPS-OH, reference compound]	–	12.00
CCCC[C@H](NC(=O)[C@H](CCC(N)=O)NC(=O)[C@H](CCCCN)NC(=O)[C@H](CO)NC(=O)[C@H](CC(C)C)NC(=O)[C@H](CC(=O)O)NC(=O)[C@H](CO)NC(=O)[C@@H](NC(=O)[C@H](Cc1ccccc1)NC(=O)[C@@H](NC(=O)CNC(=O)[C@H](CCC(N)=O)NC(=O)[C@H](CO)NC(=O)[C@@H](N)Cc1c[nH]cn1)[C@@H](C)O)[C@@H](C)O)C(=O)N[C@@H](CCC(=O)O)C(=O)N[C@@H](CO)C(=O)N[C@@H](CCCNC(=N)N)C(=O)N[C@@H](CCCNC(=N)N)C(=O)N[C@@H](C)C(=O)N[C@@H](CCC(N)=O)C(=O)N[C@@H](CCC(=O)O)C(=O)N[C@@H](Cc1ccccc1)C(=O)N[C@H](C(=O)N[C@@H](CCC(=O)O)C(=O)N[C@@H](Cc1c[nH]c2ccccc12)C(=O)N[C@@H](CC(C)C)C(=O)N[C@@H](CC(C)C)C(=O)N[C@@H](C)C(=O)N[C@H](C(=O)NCC(=O)N1CCC[C@H]1C(=O)N[C@@H](CCC(=O)O)C(=O)N[C@@H](CO)C(=O)NCC(=O)N[C@@H](C)C(=O)N1CCC[C@H]1C(=O)N1CCC[C@H]1C(=O)N1CCC[C@H]1C(=O)N[C@@H](CO)C(=O)O)[C@@H](C)O)[C@@H](C)CC [SEQ ID NO 36, H-S-Q-G-T-F-T-S-D-L-S-K-Q-Nle-ESRRAQEFIEWLLATGPESGAPPPS-OH, reference compound] (H-HSQGTFTSDLSKQ[Nle]ESRRAQEFIEWLLATGPESGAPPPS-OH)	–	11.85
H-HSQGTFTSDLSKQLESRRAQEFIEWLLATGPESGAPPPS-OH [SEQ ID NO 34, HSQGTFTSDLSKQLESRRAQEFIEWLLATGPESGAPPPS-OH, reference compound]	–	11.85
